Experimental data: US20240099298A1, “BIOINSECTICIDAL COMPOSITIONS CONTAINING MONOTERPENES AND METHODS OF USE THEREOF” (priority 2017, published 2024)
Converted amounts (≈) assume the structure as drawn.

How the values were obtained:
rGABARAP^Y174A [1] = molecular target: T1, rGABARAP^Y174A (Frankliniella occidentalis, UniProt A0A6J1T1Q2); test: ITC binding to rGABARAP mutant; details: read-out: Kd value, ITC
Description: The isothermal titration thermal binding measurements were performed with an ITC-200 calorimeter (GE Healthcare, Boston, MA) at 25° C. in a buffer containing 50 mM Tris-HCl and 100 mM NaCl (pH 7.4). […] The MicroCal Origin 7.0 software system was used for data processing. The first run was a pre-run and was excluded from the final data. The amount of protein in the sample pool was constant. […] The experimental bimolecular interaction data from the 18 drops were used to calculate the dissociation constant. The dissociation constant […] was calculated as 1/K (Li, et al. (2018) RSC Advances 8:18952-18958).
(§1) Preparation of rGABARAP Mutant and Interaction Between ME and rGABARAP Mutant. […] DNAman was used to convert the nucleic acid sequence into an amino acid sequence and find the Y174 site. Y174 was mutated to A174. The rGABARAP mutant gene loaded into the pMCSG19 vector and the His tags at both ends of the sequence were retained to construct a prokaryotic expression plasmid. The carrier contained a maltose binding protein (MBP) tag that was not cut for verification. However, MBP and ME were used as treatment controls. The mutant plasmid was constructed in Sangon Biotech (Shanghai, China). The protein expression, purification, and desalting procedures of rGABARAP^Y174A mutant and rGABARAP were the same. Subsequently, the binding kinetics of ME and rGABARAP^Y174A were tested by MST and ITC.

[2] = test system: Frankliniella occidentalis second-instar nymphs; test: whole plant or invertebrate; details: 24 h, second-instar nymphs of F. occidentalis, 24 h after treatment
Description: Chemicals. […] These monoterpenes and the positive control spinosyn A (Bosite Technology, Chongqing, China) were dissolved in acetone (10 g/L).
Insects. F. occidentalis Thrips were provided by the Institute of Vegetables and Flowers, Chinese Academy of Agricultural Sciences (Beijing, China), and kept in a box (19 cm×14 cm×20 cm) at 27±1° C., humidity of 50%-60% and a photoperiod of 16:8 h (light:dark). The population was established with sword beans (Canavalia gladiata). Second-instar nymphs with the same growth were tested.
Insect Assays. […] The leaf blade (2 cm×3 cm) was immersed in the solution for 10 s in the test solution, and then air-dried until there were no water drops on the surface. The concentrations were the same as those used in the insecticide-impregnated membrane method. After the chemical film had been formed for 2 h, the infusion leaves were placed in the bottles. The second-instar nymphs were picked with a soft writing brush to make up ten insects per bottle. The bottles were sealed with plastic wrap. 1% Triton X-100 (m/V) aqueous solution as a blank control. Each treatment was repeated four times. The bottles were placed under temperature of 27±1° C., humidity of 50%-60% and photoperiod of 16:8 h (light:dark). […] The insects were touched with a soft brush and numbers of dead and living Thrips were recorded, followed by calculation of the mortality rates.

[3] = test system: Megalurothrips usitatus (Bagrall) (thrips); test: Median lethal concentration fumigation test, thrips; details: adult thrips, exposed one hour, mortality observed in 24 hours
From the text: Median Lethal Concentration Tests. […] The species tested included Thrips (M. usitatus), spider mite (T. cinnabarinus), melon fly (B. cucuribitae), cockroach (B. lateralis), housefly (M. domestica), mosquito (A. aegypti), parasitic wasp (T. chilonis) and fruit fly (Drosophila melanogaster). After being exposed to the test chemicals for one hour, adult Thrips, spider mites, and roaches were transferred to another flask. In addition to fresh water, adult Thrips, spider mites, and roaches were then respectively fed with cowpea, fresh blade of eggplant, and peanut oil via filter. […] Mortality of melon fly was observed after three hours of exposure.

[4] = test system: B. cucuribitae (melon fly); test: Median lethal time (LT50) test, melon fly; assay type: in vivo, Bactrocera cucuribitae
From the text: (§2) All treatments and controls were in triplicate.
(§3) Toxicity of Monoterpenes as Fumigants. […] Therefore, to determine how fast the monoterpenes act as fumigants, it was necessary to determine their LT50 values for the target organisms.

rGABARAP^Y174A [5] = molecular target: T1, rGABARAP^Y174A; test: MST binding to rGABARAP mutant; details: read-out: Kd value, MST
Description: Interaction between ME and rGABARAP. A Nano Temper Monolith NT.115 MST system (Nano Temper, Munich, Germany) was used to assess the binding affinities between the target compounds and rGABARAP according to the published procedures (Zan, et al. (2020) Journal of Agricultural and Food Chemistry 68:6280-6285). Spinosyn A was used as a chemical positive control. Spinosyn A (≥1 nM) can trigger a change of the Cl^− current of insect neuron GABAAR, which is considered to be an insecticidal action mechanism of spinosyn A (Watson (2001) Pesticide Biochemistry and Physiology 71:20-28). Ovalbumin (OVA) (Sangon Biotech, Shanghai, China) is a control protein consisting of 385 amino acid residues. The interaction between OVA and ME was used as a protein control experiment (Huntington, et al. (1995) Protein Science 4:613-621).
as §1

Thrips, M. usitatus = test: Headspace fumigation toxicity of linalool mixed in peanut oil; assay type: in vivo, Megalurothrips usitatus; details: thrips exposed to headspace above the solution
[6] = test system: H. picinus (Nitidulid beetle); test: Median lethal time (LT50) test, Nitidulid beetle; assay type: in vivo, Haptoncus picinus
From the text: as §2, §3

[7] = test system: A. japonicus (parasitic wasp); test: Median lethal time (LT50) test, parasitic wasp (natural enemy); details: non-target parasitic wasp
Description: Insect Egg Parasitic Wasp (Natural Enemy). […] Both species were purchased from a commercial source. One- to two-day-old adults (after eclosion) were used for fumigation tests.
Median Lethal Time (LT50) and Median Knockdown Concentration (KC50) Tests. Five species of adult insects or natural enemies were tested for LT50 values including melon fly (B. cucuribitae), red flour beetle (T. castaneum), Nitidulidae beetle (H. picinus), parasitic wasp (A. japonicus) and housefly (M. domestica). For each treatment and control, 20 insects at the developmental stages described above were placed individually without food in a 1-L wide-mouth glass bottle (height 19.5 cm, bottom diameter 10.5 cm, mouth i.d. 5.5 cm) containing pieces of tissue paper. […] Five different concentrations of the test chemicals were placed on pieces of cellulose-based qualitative filter paper. Each of the filter papers was placed in a bottle to have 5 appropriate concentrations in serial dilutions. DDVP was the positive control, and no chemical treatments were the negative control. All treatments and controls were in triplicate. Mortality was observed periodically in a 10-30 minute interval for 2 days or until all insects died. The death was defined as no movement when the insects were touched.

[8] = test system: T. castaneum (red flour beetle); test: Median lethal time (LT50) test, red flour beetle; assay type: in vivo, Tribolium castaneum
From the text: as §2, §3

T1 sequence (A0A6J1T1Q2 entry or part of it, stated change not applied): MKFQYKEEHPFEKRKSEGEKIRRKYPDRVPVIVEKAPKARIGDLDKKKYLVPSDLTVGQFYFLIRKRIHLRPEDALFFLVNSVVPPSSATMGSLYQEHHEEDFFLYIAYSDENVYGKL

## C=CC(C)(O)CCC=C(C)C (stereo not shown) [Linalool, 3,7-dimethylocta-1,6-dien-3-o1]
rGABARAP^Y174A [1]
  Kd: 8.92 µM
[2]
  LC50: 7 µg/mL (≈ 45.4 µM)
[3]
  LC50 (fiducial limits): 2.50 µg/mL (≈ 16.2 µM)
  LC90 (fiducial limits): 6.4 µg/mL (≈ 41.5 µM)
[4]
  LT50 (fiducial limits): 2.05 h
rGABARAP^Y174A [5]
  Kd: 16.3 ± 6.79 µM
Thrips, M. usitatus
  LC50 of linalool mixed in peanut oil: 4.7%
[6]
  LT50 (fiducial limits): 1.58 h
[7]
  LT50 (fiducial limits) against A. japonicus: 0.788 (0.71-0.86) hour
[8]
  LT50 (fiducial limits): 35.1 h
